Laboratory results from patent publication US20230203480A1, “LIPID NANOPARTICLE FORMULATIONS FOR CRISPR/CAS COMPONENTS” (Intellia Therapeutics, Inc., priority 2016, published 2023).

Experiment: Pharmacokinetic profile of Lipid A in liver and plasma (LC/MS)
Format: in vivo, mouse
Settings: mice, after LNP administration
Protocol: Three different guide sequences were separately formulated, according to Example 1, and injected into mice (n=3) to determine the pharmacokinetic profile of Lipid A. Levels of Lipid A in mouse liver and plasma were measured by LC/MS. […] Tmax in liver was achieved within 30 minutes of administration, whereas T112 in plasma and liver were achieved within approximately 5-6 hours of LNP administration.

## CCCCC/C=C\C/C=C\CCCCCCCC(=O)OCC(COC(=O)CCC(OCCCCCCCC)OCCCCCCCC)COC(=O)OCCCN(CC)CC (stereo not drawn) [Lipid A, (9Z,12Z)-3-((4,4-bis(octyloxy)butanoyl)oxy)-2-((((3-(diethylamino)propoxy)carbonyl)oxy)methyl)propyl octadeca-9,12-dienoate]
CD-1, mouse, liver, intravenous
  Tmax: ≤ 30 min
  T112 in liver: 5 to 6 h
  T112 in plasma: 5 to 6 h
